From PubChem BioAssay AID306 (DTP/NCI, 2004)
Values joined by “and” are separate entries in the source; they are usually repeats but may differ in a detail not shown here. Equal entries are not always repeated. Toxic doses and inconclusive results are not listed. *1 amine or outer side, *2 acyl side, *3 side chain or, on linkers, in order; H or OH if unused. Where a SMILES comes first, the peptide text is derived from it. Bridges are numbered along the chain shown (N, C = ends). Roman numbers before positions name the chains, in order. [ ]: non-standard residue; d: D form. Actinocin(9to1) = Cc1c2oc3c(C)ccc(C(=O)[*:1])c3nc-2c(C(=O)[*:2])c(N)c1=O; aThr = C[C@H](O)[C@H](N)C(=O)O; NMeV = CN[C@H](C(=O)O)C(C)C; Sar = CNCC(=O)O

Test system: BDF1 mice, L1210 Methyl-GAG-resistant leukemia, survival T/C
Experiment: NCI In Vivo Anticancer Drug Screen. Data for tumor model L1210 Leukemia resistant to Methyl-GAG; NSC 32946 (subcutaneous) in B6D2F1 (BDF1) mice
Conditions: endpoint: mean survival time, higher = longer survival
Description: The antitumor activity of compounds was measured in mice bearing transplantable tumors. Survival or tumor size were measured and the results are expressed as the measurement made in the treated group (T) divided by the measurement made in the vehicle treated control group (C). The tumor model used in this assay is L1210 Leukemia resistant to Methyl-GAG; NSC 32946 (subcutaneous) in B6D2F1 (BDF1) mice

[1] = dose: 25.0 mg/kg/injection, schedule: Q01DX Z (sc), vehicle: steriod suspending solution
[2] = dose: 50.0 mg/kg/injection, schedule: Q01DX Z (sc), vehicle: steriod suspending solution
[3] = dose: 100.0 mg/kg/injection, schedule: Q01DX Z (sc), vehicle: steriod suspending solution
[4] = dose: 200.0 mg/kg/injection, schedule: Q01DX Z (sc), vehicle: steriod suspending solution
[5] = dose: 400.0 mg/kg/injection, schedule: Q01DX Z (sc), vehicle: steriod suspending solution
[6] = dose: 4.0 mg/kg/injection, schedule: Q01DX Z (ip), vehicle: saline

Compound: CC(CCC(C)OS(C)(=O)=O)OS(C)(=O)=O (centres undefined)
- T/C (dose: 5.0 mg/kg/injection, schedule: Q01DX Z (ip), vehicle: carboxymethylcellulose (CMC)): 90 % of control
- T/C (dose: 10.0 mg/kg/injection, schedule: Q01DX Z (ip), vehicle: carboxymethylcellulose (CMC)): 87 % of control
- T/C (dose: 20.0 mg/kg/injection, schedule: Q01DX Z (ip), vehicle: carboxymethylcellulose (CMC)): 95 % of control

Compound: O=CN(O)CC(=O)O
- T/C (dose: 62.5 mg/kg/injection, schedule: Q01DX Z (ip), vehicle: carboxymethylcellulose (CMC)): 108 % of control
- T/C (dose: 125.0 mg/kg/injection, schedule: Q01DX Z (ip), vehicle: carboxymethylcellulose (CMC)): 101 % of control
- T/C (dose: 250.0 mg/kg/injection, schedule: Q01DX Z (ip), vehicle: carboxymethylcellulose (CMC)): 101 % of control
- T/C (dose: 500.0 mg/kg/injection, schedule: Q01DX Z (ip), vehicle: carboxymethylcellulose (CMC)): 102 % of control and 110 % of control
- T/C (dose: 1000.0 mg/kg/injection, schedule: Q01DX Z (ip), vehicle: carboxymethylcellulose (CMC)): 105 % of control

Compound: C[C@]12C=CC(=O)C=C1CC[C@@H]1[C@@H]2C(=O)C[C@@]2(C)[C@H]1CC[C@]2(O)C(=O)CO
- T/C [1]: 91 % of control and 115 % of control
- T/C [2]: 103 % of control
- T/C [3]: 150 % of control
- T/C [4]: 115 % of control
- T/C [5]: 112 % of control and 118 % of control

Compound: C[C@]12CC[C@H](OC3OC(CO)C(O)C(O)C3O)C[C@H]1CC[C@@H]1[C@@H]2CC[C@]2(C)[C@@H](C3=CCOC3=O)CC[C@]12O (some centres undefined)
- T/C (dose: 0.06 mg/kg/injection, schedule: Q01DX Z (ip), vehicle: saline): 94 % of control
- T/C (dose: 0.12 mg/kg/injection, schedule: Q01DX Z (ip), vehicle: saline): 92 % of control
- T/C (dose: 0.25 mg/kg/injection, schedule: Q01DX Z (ip), vehicle: saline): 91 % of control
- T/C (dose: 0.5 mg/kg/injection, schedule: Q01DX Z (ip), vehicle: saline): 91 % of control
- T/C [6]: 90 % of control
- T/C (dose: 16.0 micrograms/kg/injection, schedule: Q01DX Z (ip), vehicle: saline): 97 % of control
- T/C (dose: 32.0 micrograms/kg/injection, schedule: Q01DX Z (ip), vehicle: saline): 102 % of control
- T/C (dose: 1000.0 micrograms/kg/injection, schedule: Q01DX Z (ip), vehicle: saline): 107 % of control
- T/C (dose: 2000.0 micrograms/kg/injection, schedule: Q01DX Z (ip), vehicle: saline): 105 % of control

Compound: O=NN(CCCl)C(=O)NCCCl
- T/C (dose: 1.0 mg/kg/injection, schedule: Q01DX Z (ip), vehicle: saline): 122 % of control
- T/C (dose: 2.0 mg/kg/injection, schedule: Q01DX Z (ip), vehicle: saline): 155 % of control
- T/C [6]: 202 % of control
- T/C (dose: 8.0 mg/kg/injection, schedule: Q01DX Z (ip), vehicle: saline): 172 % of control
- T/C (dose: 16.0 mg/kg/injection, schedule: Q01DX Z (ip), vehicle: saline): 92 % of control
- T/C (dose: 32.0 mg/kg/injection, schedule: Q01DX Z (ip), vehicle: saline): 92 % of control

Compound: Cc1c2oc3c(C)ccc(C(=O)N[C@@H]4C(=O)N[C@H](C(C)C)C(=O)N5CCC[C@H]5C(=O)N(C)CC(=O)N(C)[C@@H](C(C)C)C(=O)O[C@H]4C)c3nc-2c(C(=O)N[C@@H]2C(=O)N[C@H](C(C)C)C(=O)N3CCC[C@H]3C(=O)N(C)CC(=O)N(C)[C@@H](C(C)C)C(=O)O[C@H]2C)c(N)c1=O (I: [aThr][dV]P[Sar][NMeV] / II: [aThr][dV]P[Sar][NMeV]; ester I:1-I:C, II:1-II:C; linker I:N-II:N via Actinocin(9to1))
- T/C (dose: 0.8 micrograms/kg/injection, schedule: Q01DX Z (ip), vehicle: saline): 96 % of control
- T/C (dose: 6.4 micrograms/kg/injection, schedule: Q01DX Z (ip), vehicle: saline): 93 % of control
- T/C (dose: 25.6 micrograms/kg/injection, schedule: Q01DX Z (ip), vehicle: saline): 96 % of control
- T/C (dose: 51.2 micrograms/kg/injection, schedule: Q01DX Z (ip), vehicle: saline): 98 % of control
- T/C (dose: 102.0 micrograms/kg/injection, schedule: Q01DX Z (ip), vehicle: saline): 90 % of control

Compound: CC(=O)[C@H]1CC[C@H]2[C@@H]3C[C@H](C)C4=CC(=O)CC[C@]4(C)[C@H]3C(=O)C[C@]12C
- T/C [1]: 97 % of control
- T/C [2]: 95 % of control and 103 % of control
- T/C [3]: 97 % of control and 103 % of control and 114 % of control
- T/C [4]: 90 % of control and 105 % of control and 111 % of control
- T/C [5]: 105 % of control and 112 % of control
- T/C (dose: 800.0 mg/kg/injection, schedule: Q01DX Z (sc), vehicle: steriod suspending solution): 120 % of control
